Reference: US5006527A, “Pharmacologically active N-(4-piperidinyl) bicyclic condensed 2-imidazolamine derivatives” (Janssen Pharmaceutica N.V., priority 1989, dated 1991)

These molecules were tested on compound 48/80-induced lethality (assay: Protection of rats from compound 48/80-induced lethality). Settings: Rattus norvegicus; test compound subcutaneously or orally (route not specified per compound); compound 48/80 0.5 mg/kg i.v. one hour after treatment; survival after 4 hours; protection of 50% of animals; read-out: compound 48/80 lethality test in rate-ED50.
Type: in vivo, rat (male, inbred Wistar strain)
Method: Protection of rats from compound 48/80-induced lethality
The protection from compound 48/80-induced lethal circulatory collapse appears to be a simple way of evaluating quantitatively the antihistaminic activity of test compounds. Male rats of an inbred Wistar strain, weighting 240-260 g were used in the experiment. After overnight starvation the rats were transferred to conditioned laboratories (temp. =21±1° C., relative humidity =65±5%).
The rats were treated subcutaneously or orally with a test compound or with the solvent (NaCl solution, 0.9%). One hour after treatment there was injected intravenously compound 48/80, freshly dissolved in water, at a dose of 0.5 mg/kg (0.2 ml/100 g of body weight). In control experiments, wherein 250 solvent-treated animals were injected with the standard dose of compound 48/80, not more than 2.8% of the animals survived after 4 hours. Survival after 4 hours is therefore considered to be a safe criterion of a protective effect of drug administration. Said ED50 -values are the values in mg/kg body weight at which the tested compounds protect 50% of the tested animals against compound 48/80-inducedlethality.
`Cc1ccc(Cn2c(NC3CCN(C)CC3)nc3cccnc32)o1` [Compound 1] showed an ED50 of 0.005 mg/kg.
`CCN1CCC(Nc2nc3cccnc3n2Cc2ccc(C)o2)CC1.O=C(O)/C=C/C(=O)O.O=C(O)/C=C/C(=O)O` [Compound 4, N-(1-ethyl-4-piperidinyl)-3-[(5-methyl-2-furanyl)methyl]-3H-imidazo[4,5-b]-pyridin-2-amine (E)-2-butenedioate(1:2)] gave an ED50 of 0.0025 mg/kg.
With `C=CCN1CCC(Nc2nc3cccnc3n2Cc2ccc(C)o2)CC1.O=C(O)/C=C/C(=O)O.O=C(O)/C=C/C(=O)O` [Compound 5, 3-[(5-methyl-2-furanyl)methyl]-N-[1-(2-propenyl)-4-piperidinyl]-3H-imidazo-[4,5-b]pyridin-2-amine (E)-2-butenedioate(1:2)] the ED50 was 0.005 mg/kg.
Work on `Cc1ccc(Cn2c(NC3CCN(C/C=C/c4ccccc4)CC3)nc3cccnc32)o1` [Compound 6] yielded an ED50 of 0.04 mg/kg.
Work on `CCOCCN1CCC(Nc2nc3cccnc3n2Cc2ccc(C)o2)CC1` [Compound 7] yielded an ED50 of 0.02 mg/kg.
Work on `Cc1ccc(Cn2c(NC3CCN(CCCOc4ccccc4)CC3)nc3cccnc32)o1` [Compound 8] yielded an ED50 of 0.04 mg/kg.
`Cc1ccc(Cn2c(NC3CCN(CCn4c(=O)[nH]c5ccccc54)CC3)nc3cccnc32)o1` [Compound 9] was tested, and the ED50 was 0.02 mg/kg.
In the case of `CCn1nnn(CCN2CCC(Nc3nc4cccnc4n3Cc3ccc(C)o3)CC2)c1=O` [Compound 10], the ED50 was 0.04 mg/kg.
`CCN1CCC(Nc2nc3ccccc3n2Cc2ccc(C)o2)CC1` [Compound 11] gave an ED50 of 0.01 mg/kg.
With `COc1ccc(CCN2CCC(Nc3nc4ccccc4n3Cc3ccc(C)o3)CC2)cc1` [Compound 13] the ED50 was 0.04 mg/kg.
`Cc1ccc(Cn2c(NC3CCN(CCc4cccs4)CC3)nc3cccnc32)o1` [Compound 15] was tested, and the ED50 was 0.04 mg/kg.
Work on `CC(=O)CCCN1CCC(Nc2nc3cccnc3n2Cc2ccc(C)o2)CC1` [Compound 18] yielded an ED50 of 0.01 mg/kg.
For `CCn1nnn(CCN2CCC(Nc3nc4ccccc4n3Cc3ccc(C)o3)CC2)c1=O.O=C(O)C(=O)O.O=C(O)C(=O)O` [Compound 22, 1-ethyl-1,4-dihydro-4-[2-[4-[[1-[(5-methyl-2-furanyl)methyl]-1H-benzimidazol-2-yl]-amino]-1-piperidinyl]ethyl]-5H-tetrazol-5-one ethanedioate(1:2)], the ED50 was 0.04 mg/kg.
Molecule `Cc1ccc(Cn2c(NC3CCN(CC(O)COc4ccccc4)CC3)nc3cccnc32)o1` (stereo not shown) [Compound 26] has an ED50 of 0.04 mg/kg.
Work on `CCc1ccc(Cn2c(NC3CCN(C)CC3)nc3cccnc32)o1` [Compound 29] yielded an ED50 of 0.04 mg/kg.
Molecule `Cc1occc1Cn1c(NC2CCN(C)CC2)nc2cccnc21` [Compound 36] has an ED50 of 0.04 mg/kg.
`CCCCN1CCC(Nc2nc3cccnc3n2Cc2ccc(C)o2)CC1` [Compound 37] was tested, and the ED50 was 0.02 mg/kg.
`Cc1ccc(Cn2c(NC3CCN(CCCn4c(=O)[nH]c5ccccc54)CC3)nc3cccnc32)o1` [Compound 38] showed an ED50 of 0.02 mg/kg.
`CCCCCCN1CCC(Nc2nc3cccnc3n2Cc2ccc(C)o2)CC1` [Compound 39] showed an ED50 of 0.04 mg/kg.
In the case of `CNC(=O)NCCN1CCC(Nc2nc3ccccc3n2Cc2ccc(C)o2)CC1` [Compound 40, N-methyl-N'-[2-[4-[[1-[(5-methyl-2-furanyl)methyl]-1H-benzimidazol-2-yl]amino]-1-piperidinyl]ethyl]urea], the ED50 was 0.02 mg/kg.
`CC(=O)CCN1CCC(Nc2nc3cccnc3n2Cc2ccc(C)o2)CC1` [Compound 41] gave an ED50 of 0.01 mg/kg.
In the case of `CCCCCN1CCC(Nc2nc3cccnc3n2Cc2ccc(C)o2)CC1` [Compound 42], the ED50 was 0.04 mg/kg.
With `Cc1ccc(Cn2c(NC3CCN(CCCC(=O)c4ccc(F)cc4)CC3)nc3cccnc32)o1` [Compound 46] the ED50 was 0.04 mg/kg.
With `Cc1occc1Cn1c(NC2CCN(CCn3c(=O)[nH]c4ccccc43)CC2)nc2cccnc21` [Compound 53] the ED50 was 0.04 mg/kg.
Molecule `Cc1ccoc1Cn1c(NC2CCN(C)CC2)nc2cccnc21` [Compound 56] has an ED50 of 0.04 mg/kg.
In the case of `Cc1coc(Cn2c(NC3CCN(C)CC3)nc3cccnc32)c1` [Compound 62], the ED50 was 0.005 mg/kg.
`Cc1coc(Cn2c(NC3CCN(CCn4c(=O)[nH]c5ccccc54)CC3)nc3cccnc32)c1` [Compound 63] gave an ED50 of 0.04 mg/kg.
`COc1ccc(CCN2CCC(Nc3nc4cccnc4n3Cc3cc(C)co3)CC2)cc1` [Compound 64] gave an ED50 of 0.04 mg/kg.
